# Structures can show the parent of a compound that is named as a salt.
# Tests used:
# BDV-Hu-H1 = assay: Inhibition of BDV replication in human oligodendroglia (OL) cells; conditions: already infected OL cells, 1.2 μg/mL, 6 days
# Protocol: (§3) On the other side, freshly infected OL cells were treated with the same drug dose for 24 hours and then for a further 6 days after the infection.
# rabbit brain cells = assay: Cell growth tolerance in the rabbit brain cell system; type: cell-based; conditions: relative to the cell system
# Protocol: (§1) Young rabbit brain cells were treated with amantadine sulfate and, in a comparison experiment, with meso-inositol. After this treatment, both samples were treated for 1 hour with a human Borna disease virus strain (100±10 ffu/mL with BDV-Hu-H1 (regarding this strain, refer also to L. Bode, et al., Mol. Psychiatry 1996, 1(3), 200-212)).
# (§2) The highest in vitro dose, which permits normal, unimpaired cell growth, is 1.2 μg/mL, relative to the cell system.
# [1] = test system: human Borna disease virus strain BDV-Hu-H1; assay: Inhibition of BDV infection of young rabbit brain cells after one-hour pre-treatment; type: cell-based, Borna disease virus (human strain) in rabbit brain cells; conditions: one-hour pre-treatment before infection, 100±10 ffu/mL BDV-Hu-H1, read-out: concentration that inhibits the infection of rabbit brain cells with human BDV to the extent of 50%
# Protocol: as §1, §2
# [2] = test system: human oligodendroglia cells (OL cells); assay: Cell growth of OL cells under amantadine sulfate; conditions: 1.2 μg/mL, whole period observed
# Protocol: as §3
# [3] = test system: activated BDV infection / depression; assay: Treatment of a BDV-infected patient with bipolar disease (severe depressive episode)
# [4] = cited from earlier work
# influenza B strains = conditions: cited from earlier work
# influenza A strains = conditions: cited from earlier work
smiles,measurement,setting,value
NC12CC3CC(CC(C3)C1)C2 [amantadine sulfate],reduction of the number of infectious viruses (factor),BDV-Hu-H1,"more than 10,000"
same,"highest in vitro dose which permits normal, unimpaired cell growth",rabbit brain cells,1.2 µg/mL
same,IC50,[1],0.019 µg/mL
same,effect on cell growth,[2],practically not affected
same,Borna virus activity (protein expression in the blood leucocytes),[3]; after the 11th day of treatment and also 5 months later,could no longer be detected
same,course of depression under treatment,"[3]; from the 8th day to the 11th day, 50 to 200 mg daily",improved dramatically
same,day of treatment after which discharge from hospital was possible,[3]; patient,15 days
same,undesirable side effects,"[3]; patient, until now",no undesirable side effects
"CC(N)C12CC3CC(CC(C3)C1)C2 (centres unmarked) [rimantadine, 1-adamantyl-(1-amino) ethane]",excretion / metabolism,[4]; in vivo,metabolized in the liver
NC12CC3CC(CC(C3)C1)C2 [amantadine hydrochloride],sensitivity of the virus,influenza B strains,not sensitive
same,push back of virus production,influenza A strains,by a power of 10
"NC12CC3CC(CC(C3)C1)C2 [amantadine, 1-adamantane amine]",half-lifetime,[4]; in vivo,approximately 15 hours
same,absorption after oral administration,[4]; oral,absorbed almost completely
same,depression-free time without hypomanic rebound effect,[3]; patient under therapy,5 months
